From paper PMC11277489, “Novel Piperazine Derivatives of Vindoline as Anticancer Agents” (International Journal of Molecular Sciences, 2024)
Read-outs that look alike come from different tables or passages of the source.

Key:
CCRF-CEM = experiment: NCI60 one-dose screen (10 μM), Leukemia; format: cell-based; conditions: Homo sapiens, read-out: Growth percent rate
HL-60(TB) = experiment: NCI60 one-dose screen (10 μM), Leukemia; format: cell-based; conditions: Homo sapiens
K-562 = experiment: NCI60 one-dose screen (10 μM), Leukemia; format: cell-based; conditions: Homo sapiens
MOLT-4 = experiment: NCI60 one-dose screen (10 μM), Leukemia; format: cell-based, human; conditions: for activity at 10 µM: Homo sapiens
RPMI-8226 = experiment: NCI60 one-dose screen (10 μM), Leukemia; format: cell-based; conditions: Homo sapiens
A549/ATCC = experiment: NCI60 one-dose screen (10 μM), Non-small Cell Lung Cancer; format: cell-based; conditions: Homo sapiens
EKVX = experiment: as above; format: cell-based; conditions: Homo sapiens, read-out: Growth percent rate
HOP-62 = experiment: as above; format: cell-based; conditions: Homo sapiens
NCI-H23 = experiment: as above; format: cell-based; conditions: Homo sapiens
NCI-H322M = experiment: as above; format: cell-based; conditions: Homo sapiens, read-out: Growth percent rate
NCI-H460 = experiment: as above; format: cell-based; conditions: Homo sapiens
NCI-H522 = experiment: as above; format: cell-based; conditions: Homo sapiens
HCC-2998 = experiment: NCI60 one-dose screen (10 μM), Colon Cancer; format: cell-based; conditions: Homo sapiens
HCT-116 = experiment: NCI60 one-dose screen (10 μM), Colon Cancer; format: cell-based; conditions: Homo sapiens
HT29 = experiment: NCI60 one-dose screen (10 μM), Colon Cancer; format: cell-based; conditions: Homo sapiens
KM12 = experiment: NCI60 one-dose screen (10 μM), Colon Cancer; format: cell-based, human; conditions: Homo sapiens
SW-620 = experiment: NCI60 one-dose screen (10 μM), Colon Cancer; format: cell-based; conditions: Homo sapiens
SF-268 = experiment: NCI60 one-dose screen (10 μM), CNS Cancer; format: cell-based; conditions: Homo sapiens
SF-295 = experiment: NCI60 one-dose screen (10 μM), CNS Cancer; format: cell-based; conditions: Homo sapiens
SNB-19 = experiment: NCI60 one-dose screen (10 μM), CNS Cancer; format: cell-based; conditions: Homo sapiens
SNB-75 = experiment: NCI60 one-dose screen (10 μM), CNS Cancer; format: cell-based, human; conditions: Homo sapiens
U251 = experiment: NCI60 one-dose screen (10 μM), CNS Cancer; format: cell-based; conditions: Homo sapiens
MALME-3M = experiment: NCI60 one-dose screen (10 μM), Melanoma; format: cell-based; conditions: Homo sapiens, read-out: Growth percent rate
M14 = experiment: NCI60 one-dose screen (10 μM), Melanoma; format: cell-based; conditions: Homo sapiens
MDA-MB-435 = experiment: NCI60 one-dose screen (10 μM), Melanoma; format: cell-based; conditions: Homo sapiens
SK-MEL-2 = experiment: NCI60 one-dose screen (10 μM), Melanoma; format: cell-based; conditions: Homo sapiens
SK-MEL-28 = experiment: NCI60 one-dose screen (10 μM), Melanoma; format: cell-based; conditions: Homo sapiens
SK-MEL-5 = experiment: NCI60 one-dose screen (10 μM), Melanoma; format: cell-based, human; conditions: Homo sapiens
UACC-257 = experiment: NCI60 one-dose screen (10 μM), Melanoma; format: cell-based; conditions: Homo sapiens
IGROV1 = experiment: NCI60 one-dose screen (10 μM), Ovarian Cancer; format: cell-based; conditions: Homo sapiens
OVCAR-3 = experiment: NCI60 one-dose screen (10 μM), Ovarian Cancer; format: cell-based; conditions: Homo sapiens
OVCAR-4 = experiment: NCI60 one-dose screen (10 μM), Ovarian Cancer; format: cell-based; conditions: Homo sapiens
OVCAR-8 = experiment: NCI60 one-dose screen (10 μM), Ovarian Cancer; format: cell-based; conditions: Homo sapiens
786–0 = experiment: NCI60 one-dose screen (10 μM), Renal Cancer; format: cell-based; conditions: Homo sapiens
A498 = experiment: NCI60 one-dose screen (10 μM), Renal Cancer; format: cell-based; conditions: Homo sapiens
ACHN = experiment: NCI60 one-dose screen (10 μM), Renal Cancer; format: cell-based; conditions: Homo sapiens, read-out: Growth percent rate
CAKI-1 = experiment: NCI60 one-dose screen (10 μM), Renal Cancer; format: cell-based; conditions: Homo sapiens
SN12C = experiment: NCI60 one-dose screen (10 μM), Renal Cancer; format: cell-based; conditions: Homo sapiens, read-out: Growth percent rate
TK-10 = experiment: NCI60 one-dose screen (10 μM), Renal Cancer; format: cell-based; conditions: Homo sapiens
DU-145 = experiment: NCI60 one-dose screen (10 μM), Prostate Cancer; format: cell-based; conditions: Homo sapiens
MCF7 = experiment: NCI60 one-dose screen (10 μM), Breast Cancer; format: cell-based; conditions: Homo sapiens
[1] = system: 60 human tumor cell lines (NCI60); experiment: NCI60 one-dose screen (10 μM), whole panel; format: cell-based; conditions: read-out: Growth percent rate, Mean
[2] = 10 μM, Non-small Cell Lung Cancer

CC[C@]12C=CCN3CC[C@@]4(c5ccc(OC)cc5N(C)[C@H]4[C@@](O)(C(=O)OC)[C@@H]1OC(=O)CCC(=O)N1CCN(C(c4ccc(F)cc4)c4ccc(F)cc4)CC1)[C@@H]32 [Compound 31]
activity at 10 µM (CCRF-CEM; 10 μM, Leukemia): -81.9% | activity at 10 µM (HL-60(TB); 10 μM, HL-60(TB), Leukemia, read-out: Growth percent rate): -98.4% | activity at 10 µM (K-562; K562, 10 μM, K-562, Leukemia, read-out: Growth percent rate): 7.65% | growth percent rate (MOLT-4; 10 μM one-dose, MOLT-4 leukemia, negative = lethality): −98.81% | activity at 10 µM (MOLT-4; 10 μM, MOLT-4, Leukemia, read-out: Growth percent rate): -98.8% | activity at 10 µM (RPMI-8226; 10 μM, RPMI-8226, Leukemia, read-out: Growth percent rate): -98.1% | activity at 10 µM (A549/ATCC; 10 μM, A549/ATCC, Non-small Cell Lung Cancer, read-out: Growth percent rate): 1.83% | activity at 10 µM (EKVX; [2]): -17.8% | activity at 10 µM (HOP-62; 10 μM, HOP-62, Non-small Cell Lung Cancer, read-out: Growth percent rate): -57% | activity at 10 µM (NCI-H23; 10 μM, NCI-H23, Non-small Cell Lung Cancer, read-out: Growth percent rate): -23.4% | activity at 10 µM (NCI-H322M; [2]): -0.86% | activity at 10 µM (NCI-H460; 10 μM, NCI-H460, Non-small Cell Lung Cancer, read-out: Growth percent rate): -60.9% | activity at 10 µM (NCI-H522; 10 μM, NCI-H522, Non-small Cell Lung Cancer, read-out: Growth percent rate): -22.2% | activity at 10 µM (HCC-2998; 10 μM, HCC-2998, Colon Cancer, read-out: Growth percent rate): -66.9% | activity at 10 µM (HCT-116; 10 μM, HCT-116, Colon Cancer, read-out: Growth percent rate): -32.4% | activity at 10 µM (HT29; HT-29, 10 μM, HT29, Colon Cancer, read-out: Growth percent rate): -83.3% | activity at 10 µM (KM12; 10 μM, KM12, Colon Cancer, read-out: Growth percent rate): -50.8% | activity at 10 µM (SW-620; 10 μM, SW-620, Colon Cancer, read-out: Growth percent rate): -37% | activity at 10 µM (SF-268; 10 μM, SF-268, CNS Cancer, read-out: Growth percent rate): 7.32% | activity at 10 µM (SF-295; 10 μM, SF-295, CNS Cancer, read-out: Growth percent rate): -61.1% | activity at 10 µM (SNB-19; 10 μM, SNB-19, CNS Cancer, read-out: Growth percent rate): 8.85% | activity at 10 µM (SNB-75; 10 μM, SNB-75, CNS Cancer, read-out: Growth percent rate): -43.5% | activity at 10 µM (U251; U-251, 10 μM, U251, CNS Cancer, read-out: Growth percent rate): -15.1% | activity at 10 µM (MALME-3M; 10 μM, MALME-3M, Melanoma): -16.6% | activity at 10 µM (M14; 10 μM, M14, Melanoma, read-out: Growth percent rate): 0.99% | activity at 10 µM (MDA-MB-435; 10 μM, MDA-MB-435, Melanoma, read-out: Growth percent rate): -23.3% | activity at 10 µM (SK-MEL-2; 10 μM, SK-MEL-2, Melanoma, read-out: Growth percent rate): -85.4% | activity at 10 µM (SK-MEL-28; 10 μM, SK-MEL-28, Melanoma, read-out: Growth percent rate): -6.67% | activity at 10 µM (SK-MEL-5; 10 μM, SK-MEL-5, Melanoma, read-out: Growth percent rate): -88% | activity at 10 µM (UACC-257; 10 μM, UACC-257, Melanoma, read-out: Growth percent rate): -30.8% | activity at 10 µM (IGROV1; IGROV-1, 10 μM, IGROV1, Ovarian Cancer, read-out: Growth percent rate): -92.2% | activity at 10 µM (OVCAR-3; 10 μM, OVCAR-3, Ovarian Cancer, read-out: Growth percent rate): -71% | activity at 10 µM (OVCAR-4; 10 μM, OVCAR-4, Ovarian Cancer, read-out: Growth percent rate): -34.6% | activity at 10 µM (OVCAR-8; 10 μM, OVCAR-8, Ovarian Cancer, read-out: Growth percent rate): -13.2% | activity at 10 µM (786–0; 10 μM, 786-0, Renal Cancer, read-out: Growth percent rate): -40.3% | activity at 10 µM (A498; 10 μM, A498, Renal Cancer, read-out: Growth percent rate): -61.6% | activity at 10 µM (ACHN; 10 μM, Renal Cancer): -35.8% | activity at 10 µM (CAKI-1; 10 μM, CAKI-1, Renal Cancer, read-out: Growth percent rate): 1.73% | activity at 10 µM (SN12C; 10 μM, Renal Cancer): -89.1% | activity at 10 µM (TK-10; 10 μM, TK-10, Renal Cancer, read-out: Growth percent rate): -32.1% | activity at 10 µM (DU-145; 10 μM, DU-145, Prostate Cancer, read-out: Growth percent rate): -3.52% | activity at 10 µM (MCF7; 10 μM, MCF7, Breast Cancer, read-out: Growth percent rate): -28.7% | activity at 10 µM ([1]; 10 μM, mean over 60 human cancer cell lines): -41.8%

CC[C@]12C=CCN3CC[C@@]4(c5ccc(OC)cc5N(C)[C@H]4[C@@](O)(C(=O)OC)[C@@H]1OC(=O)CCC(=O)N1CCN(C(=O)c4ccco4)CC1)[C@@H]32 [Compound 32]
activity at 10 µM (CCRF-CEM): 86.8% | activity at 10 µM (HL-60(TB); HL-60, read-out: Growth percent rate): 90.9% | activity at 10 µM (K-562; K562, read-out: Growth percent rate): 102% | activity at 10 µM (MOLT-4; MOLT-4, read-out: Growth percent rate): 85.8% | activity at 10 µM (RPMI-8226; RPMI-8226, read-out: Growth percent rate): 99.4% | activity at 10 µM (A549/ATCC; A549, read-out: Growth percent rate): 95.2% | activity at 10 µM (EKVX): 99.4% | activity at 10 µM (HOP-62; HOP-62, read-out: Growth percent rate): 96.2% | activity at 10 µM (NCI-H23; NCI-H23, read-out: Growth percent rate): 101% | activity at 10 µM (NCI-H322M): 114% | activity at 10 µM (NCI-H460; NCI-H460, read-out: Growth percent rate): 107% | activity at 10 µM (NCI-H522; NCI-H522, read-out: Growth percent rate): 81.4% | activity at 10 µM (HCC-2998; HCC 2998, read-out: Growth percent rate): 113% | activity at 10 µM (HCT-116; HCT-116, read-out: Growth percent rate): 119% | activity at 10 µM (HT29; HT-29, read-out: Growth percent rate): 102% | activity at 10 µM (KM12; KM12, read-out: Growth percent rate): 100% | activity at 10 µM (SW-620; SW-620, read-out: Growth percent rate): 117% | activity at 10 µM (SF-268; SF-268, read-out: Growth percent rate): 92.2% | activity at 10 µM (SF-295; SF-295, read-out: Growth percent rate): 95.2% | activity at 10 µM (SNB-19; SNB-19, read-out: Growth percent rate): 91.2% | activity at 10 µM (SNB-75; SNB-75, read-out: Growth percent rate): 109% | activity at 10 µM (U251; U-251, read-out: Growth percent rate): 97.4% | activity at 10 µM (MALME-3M; Malme-3M): 82% | activity at 10 µM (M14; M14, read-out: Growth percent rate): 88.3% | activity at 10 µM (MDA-MB-435; MDA-MB-435, read-out: Growth percent rate): 98.2% | activity at 10 µM (SK-MEL-2; SK-MEL-2, read-out: Growth percent rate): 96.8% | activity at 10 µM (SK-MEL-28; SK-MEL-28, read-out: Growth percent rate): 67.6% | activity at 10 µM (SK-MEL-5; SK-MEL-5, read-out: Growth percent rate): 83.8% | activity at 10 µM (UACC-257; UACC-257, read-out: Growth percent rate): 61.7% | activity at 10 µM (IGROV1; IGROV-1, read-out: Growth percent rate): 126% | activity at 10 µM (OVCAR-3; OVCAR-3, read-out: Growth percent rate): 99.8% | activity at 10 µM (OVCAR-4; OVCAR-4, read-out: Growth percent rate): 98.1% | activity at 10 µM (OVCAR-8; OVCAR-8, read-out: Growth percent rate): 100% | activity at 10 µM (786–0; 786-0, read-out: Growth percent rate): 104% | activity at 10 µM (A498; A498, read-out: Growth percent rate): 117% | activity at 10 µM (ACHN): 103% | activity at 10 µM (CAKI-1; CAKI-1, read-out: Growth percent rate): 78.4% | activity at 10 µM (SN12C): 94.4% | activity at 10 µM (TK-10; TK-10, read-out: Growth percent rate): 103% | activity at 10 µM (DU-145; DU-145, read-out: Growth percent rate): 116% | activity at 10 µM (MCF7; MCF7, read-out: Growth percent rate): 91.5% | activity at 10 µM ([1]; Homo sapiens): 97.2%
